US20060194969A1, “4-Substituted benzimidazoles and their uses as inhibitors of gastric secretion” (priority 2002, published 2006)

What was measured:
[1] = test system: pentagastrin-stimulated acid secretion of the perfused rat stomach; test: Secretion-inhibiting action on the perfused rat stomach (pentagastrin-stimulated acid secretion, intraduodenal administration in vivo); conditions: dose 1 μmol/kg i.d., anesthetized female CD rat; for inhibition in vivo at 1 µmol/kg: intraduodenal
Source text: Testing of the Secretion-Inhibiting Action on the Perfused Rat Stomach
In Table A which follows, the influence of the compounds according to the invention on the pentagastrin-stimulated acid secretion of the perfused rat stomach after intraduodenal administration in vivo is shown.
The abdomen of anesthetized rats (CD rat, female, 200-250 g; 1.5 g/kg i.m. urethane) was opened after tracheotomy by a median upper abdominal incision and a PVC catheter was fixed transorally in the esophagus and another via the pylorus such that the ends of the tubes just projected into the gastric lumen. The catheter leading form the pylorus led outward into the right abdominal wall through a side opening.
After thorough rinsing (about 50-100 ml), warm (37° C.) physiological NaCl solution was continuously passed through the stomach (0.5 ml/min, pH 6.8-6.9; Braun-Unita I). The pH (pH meter 632, glass electrode EA 147; φ=5 mm, Metrohm) and, by titration with a freshly prepared 0.01 N NaOH solution to pH 7 (Dosimat 665 Metrohm), the secreted HCl were determined in the effluent in each case collected at an interval of 15 minutes.
The gastric secretion was stimulated by continuous infusion of 1 μg/kg (=1.65 ml/h) of i.v. pentagastrin (left femoral vein) about 30 min after the end of the operation (i.e. after determination of 2 preliminary fractions). The substances to be tested were administered intraduodenally in a 2.5 ml/kg liquid volume 60 min after the start of the continuous pentagastrin infusion.
The body temperature of the animals was kept at a constant 37.8-38° C. by infrared irradiation and heat pads (automatic, stepless control by means of a rectal temperature sensor).

| Structure (SMILES) | inhibition in vivo at 1 µmol/kg [1] [%] | melting point [°C] | Inhibition of acid secretion (%) [1] [%] |
| --- | --- | --- | --- |
| Cc1nc2c(O[C@@H]3c4ccccc4C[C@H]3O)cc(C(=O)N(C)C)cc2n1C.O=C(O)C(=O)O (relative stereo) [Example 10, 4-(trans-2,3-Dihydro-2-hydroxy-1-indenyloxy)-6-(N,N-dimethylaminocarbonyl)-1,2-dimethyl-1H-benzimidazole Oxalate] | > 50 | 144 to 145 | – |
| COCC(=O)O[C@@H]1Cc2ccccc2[C@H]1Oc1cc(C(=O)N(C)C)cc2c1nc(C)n2C (relative stereo) [Example 13] | – | – | >50 |
| Cc1nc2c(O[C@@H]3c4ccc(Cl)cc4C[C@H]3O)cc(C(=O)N(C)C)cc2n1C.O=C(O)C(=O)O (relative stereo) [Example 19, 4-(trans-5-Chloro-2,3-dihydro-2-hydroxy-1-indenyloxy)-6-(N,N-dimethylaminocarbonyl)-1,2-dimethyl-1H-benzimidazole Oxalate] | > 50 | 158 to 159 | – |
| CCc1cccc(C)c1COc1cc(C(=O)N(C)C)cc2c1nc(C)n2C [Example 8, 6-(N,N-Dimethylaminocarbonyl)-4-(2-ethyl-6-methyl-benzyloxy)-1,2-dimethyl-1H-benzimidazole] | > 50 | 161 to 162 | – |
| Cc1nc2c(O[C@H]3c4ccccc4C[C@@H]3O)cc(C(=O)N(C)C)cc2n1C.O=C(O)C(=O)O [Example 11, 4-[(1S,2S)-2,3-Dihydro-2-hydroxy-1-indenyloxy]-6-(N,N-dimethylaminocarbonyl)-1,2-dimethyl-1H-benzimidazole Oxalate] | > 50 | 126 to 127 | – |
| CCc1cccc(C)c1CNc1cc(C(=O)N(C)C)cc2c1nc(C)n2C [Example 44] | – | – | >50 |
| COC(=O)Nc1cccc(C)c1CNc1cc(C(=O)N(C)C)cc2c1nc(C)n2C [Example 50, 6-(N,N-Dimethylaminocarbonyl)-4-(2-methoxycarbonylamino-6-methyl-benzylamino)-1,2-dimethyl-1H-benzimidazole] | – | 193 to 195 | – |
| CCOC(=O)c1cc(OCc2ccccc2)c2nc(C)n(C)c2c1 [Example 52, Ethyl 4-benzyloxy-1,2-dimethyl-1H-benzimidazole-6-carboxylate] | – | 152 | – |
| COC(=O)c1cc(OCc2ccccc2)c2nc(C)n(C)c2c1 [Example 53, Methyl 4-benzyloxy-1,2-dimethyl-1H-benzimidazole-6-carboxylate] | – | 166 | – |
| Cc1cccc(C)c1CNc1cc(C(=O)N2CC2)cc2c1nc(C)n2C [Example 54, 6-(1-Aziridinylcarbonyl)-4-(2,6-dimethyl-benzylamino)-1,2-dimethyl-1H-benzimidazole] | – | 201 to 202 | – |
| Cc1cccc(C)c1CNc1cc(C(=O)N(C)CCO)cc2c1nc(C)n2C [Example 56, 4-(2,6-Dimethyl-benzylamino)-6-(N-2-hydroxyethyl-N-methylaminocarbonyl)-1,2-dimethyl-1H-benzimidazole] | – | 177 to 178 | – |
| Cc1cccc(C)c1CNc1cc(C(=O)NN)cc2c1nc(C)n2C [Example 57, 4-(2,6-Dimethyl-benzylamino)-1,2-dimethyl-1H-benzimidazole-6-carboxylic acid hydrazide] | – | 277 to 278 | – |
| Cc1cccc(C)c1CNc1cc(CO)cc2c1nc(C)n2C [Example 58, 4-(2,6-Dimethyl-benzylamino)-6-hydroxymethyl-1,2-dimethyl-1H-benzimidazole] | – | 245 to 246 | – |
| Cc1ccccc1CNc1cc(C(=O)N(C)C)cc2c1nc(C)n2C [Example 61, 6-(N,N-Dimethylaminocarbonyl)-1,2-dimethyl-4-(2-methyl-benzylamino)-1H-benzimidazole] | – | 158 to 159 | – |
| Cc1coc(C)c1N(C)c1cc(C(=O)N(C)C)cc2c1nc(C)n2C [Example 62, 6-(N,N-Dimethylaminocarbonyl)-4-(2,4-dimethyl-furan-3-yl-methylamino)-1,2-dimethyl-1H-benzimidazole] | – | 163 to 164 | – |
| Cc1cccc(C)c1CNc1cc(S(=O)(=O)N(C)C)cc2c1nc(C)n2C [Example 63, 7-(2,6-Dimethyl-benzylamino)-2,3-dimethyl-3H-benzimidazole-5-sulfonic acid dimethylamide] | – | 237 to 238 | – |
| CCOC(=O)c1cc(NCc2c(C)cccc2C)c2nc(C)n(COCc3ccccc3)c2c1 [Example 64, Ethyl1-benzyloxymethyl-4-(2,6-dimethyl-benzylamino)-2-methyl-1H-benzimidazole-6-carboxylate] | – | 155 to 156 | – |

| Structure (SMILES) | inhibition in vivo at 1 µmol/kg [1] [%] | melting point [°C] | Inhibition of acid secretion (%) [1] [%] |
| --- | --- | --- | --- |
| Cc1cccc(C)c1CNc1cc(C(=O)N(C)C)cc2c1nc(C)n2COCc1ccccc1 [Example 66, 1-Benzyloxymethyl-6-(N,N-dimethylaminocarbonyl)-4-(2,6-dimethyl-benzylamino)-2-methyl-1H-benzimidazole] | – | 55 to 56 | – |
| Cc1nc2c(NCc3c(C)cccc3C)cc(C(=O)N(C)C)cc2[nH]1 [Example 67, 6-(N,N-Dimethylaminocarbonyl)-4-(2,6-dimethyl-benzylamino)-2-methyl-1H-benzimidazole] | – | 203 | – |
| CNC(=O)c1cc(NCc2c(C)cccc2C)c2nc(C)[nH]c2c1 [Example 69, 4-(2,6-Dimethyl-benzylamino)-6-(N-methylaminocarbonyl)-2-methyl-1H-benzimidazole] | – | 298 | – |
| Cc1cccc(CO)c1CNc1cc(C(=O)N(C)C)cc2c1nc(C)n2C [Example 70, 6-(N,N-Dimethylaminocarbonyl)-4-(2-hydroxymethyl-6-methyl-benzylamino)-1,2-dimethyl-1H-benzimidazole] | – | 197 to 198 | – |
| Cc1cccc(C)c1CNc1cc(C2=NCCN2)cc2c1nc(C)n2C [Example 72, 6-(4,5-Dihydro-1H-imidazol-2-yl)-4-(2,6-dimethyl-benzylamino)-1,2-dimethyl-1H-benzimidazole] | – | 273 to 274 | – |
| Cc1cccc(C)c1CNc1cc(C2=NCCN2C)cc2c1nc(C)n2C [Example 73, 6-(4,5-Dihydro-1-methyl-1H-imidazol-2-yl)-4-(2,6-dimethyl-benzylamino)-1,2-dimethyl-1H-benzimidazole] | – | 118 to 119 | – |
| Cc1cccc(C)c1CNc1cc(C2=NCCO2)cc2c1nc(C)n2C [Example 74, 6-(4,5-Dihydro-oxazol-2-yl)-4-(2,6-dimethyl-benzylamino)-1,2-dimethyl-1H-benzimidazole] | – | 235 | – |
| Cc1cccc(C)c1CNc1cc(Br)cc2c1nc(C)n2O [Example 76, 6-Bromo-4-(2,6-dimethyl-benzylamino)-1-hydroxy-2-methyl-1H-benzimidazole] | – | 277 | – |
| COn1c(C)nc2c(NCc3c(C)cccc3C)cc(Br)cc21 [Example 77, 6-Bromo-4-(2,6-dimethyl-benzylamino)-1-methoxy-2-methyl-1H-benzimidazole] | – | 171 to 172 | – |
| CCOC(=O)c1cc(NCc2c(C)cccc2C)c2nc(C)n(OC)c2c1 [Example 78, Ethyl 4-(2,6-dimethyl-benzylamino)-1-methoxy-2-methyl-1H-benzimidazole-6-carboxylate] | – | 165 to 166 | – |
| COn1c(C)nc2c(NCc3c(C)cccc3C)cc(C(=O)O)cc21 [Example 79, 4-(2,6-Dimethyl-benzylamino)-1-methoxy-2-methyl-1H-benzimidazole-6-carboxylic acid] | – | 248 to 249 | – |
| COn1c(C)nc2c(NCc3c(C)cccc3C)cc(C(=O)N(C)C)cc21 [Example 80, 6-(N,N-Dimethylamino-carbonyl)-4-(2,6-dimethyl-benzylamino)-1-methoxy-2-methyl-1H-benzimidazole] | – | 128 to 129 | – |
| CC(=O)OCc1nc2c(NCc3c(C)cccc3C)cc(Br)cc2n1C [Example 81, 2-Acetoxymethyl-6-bromo-4-(2,6-dimethyl-benzylamino)-1-methyl-1H-benzimidazole] | – | 188 to 190 | – |
| Cc1cccc(C)c1CNc1cc(C(=O)N(C)C)cc2c1nc(CO)n2C [Example 82, 6-(N,N-Dimethylaminocarbonyl)-4-(2,6-dimethyl-benzylamino)-2-hydroxymethyl-1-methyl-1H-benzimidazole] | – | 171 to 172 | – |
| CCc1cccc(C)c1CNc1cc(C(=O)N(C)C)cc2c1nc(CO)n2C [Example 83, 6-(N,N-Dimethylaminocarbonyl)-4-(2-ethyl-6-methyl-benzylamino)-2-hydroxymethyl-1-methyl-1H-benzimidazole] | – | 138 to 141 | – |
| Cc1nnc(-c2cc(NCc3c(C)cccc3C)c3nc(C)n(C)c3c2)o1 [Example 85, 4-(2,6-Dimethyl-benzylamino)-6-(5-methyl-[1,3,4]oxadiazol-2yl)-1,2-dimethyl-1H-benzimidazole] | – | 256 to 257 | – |
| CCOC(=O)c1cc(OCc2ccccc2)c2nc(C3CC3)n(C)c2c1 [Example 86, Ethyl 4-benzyloxy-2-cyclopropyl-1-methyl-1H-benzimidazole-6-carboxylate] | – | 120 | – |
